Literature values in the PKSmart pharmacokinetics tables (Seal et al. 2025).
Where a SMILES comes first, the peptide text is derived from it. [ ]: non-standard residue; d: D form. pGlu = O=C1CC[CH](C(=O)O)N1; Thz = O=C(O)[CH]1CSCN1

Experiment: Lombardo, Berellini, Obach 2018, Drug Metab Dispos 46:1466, doi 10.1124/dmd.118.082966
Conditions: human; for MRT / clearance / half-life / Vd: in vivo, iv; for fraction unbound: plasma

Structure (SMILES)	MRT [h]	clearance [mL/min/kg]	half-life [h]	fraction unbound	Vd [L/kg]
CC/C=C\C/C=C\C/C=C\C/C=C\C/C=C\C/C=C\CCC(=O)OC(C(=O)O[C@H]1C[C@@]2(O)[C@@H](OC(=O)c3ccccc3)[C@@H]3[C@]4(OC(C)=O)CO[C@@H]4C[C@H](O)[C@@]3(C)C(=O)C(OC(C)=O)=C(C1C)C2(C)C)[C@@H](NC(=O)c1ccccc1)c1ccccc1 (stereo partly drawn)	45	0.025	60	0.0038	
CC[N+](C)(C)c1cccc([O-])c1	1.9	9.6	1.8		1.1
N=C(N)NC(=O)c1cnn(-c2cccc3ncccc23)c1C1CC1	1.3		2		1.7
CCc1ccc(Cc2ccc3c(c2)[C@]2(OC3)O[C@H](CO)[C@@H](O)[C@H](O)[C@H]2O)cc1	5.1	2.07	4.7	0.46	0.63
COc1c2occc2cc2ccc(=O)oc12	0.88			0.09	0.61
CC(C)=c1nc(N(C)S(C)(=O)=O)nc(-c2ccc(F)cc2)c1=CC[C@@H](O)C[C@@H](O)CC(=O)O	2.6	11	2		1.7
C#CCN(C)C(C)Cc1ccccc1 (stereo not drawn)	1.6	20	1.3		1.9
CC[C@H](CC[C@@H](C)[C@H]1CC[C@H]2[C@@H]3CC=C4C[C@@H](O)CC[C@]4(C)[C@H]3CC[C@]12C)C(C)C	250	0.02	372		0.3
COc1ccc2[n-]c([S+](O)Cc3ncc(C)c(OC)c3C)nc2c1 (stereo not drawn)	0.48	8.4	0.58		0.24
CCOc1ccc(Cc2cc(C3O[C@H](CO)[C@@H](O)[C@H](O)[C@H]3O)ccc2Cl)cc1 (stereo partly drawn)	9.5	3	12.2	0.09	1.7
CN(C)CCNC(=O)c1cccc2cc3ccccc3nc12	3.49	16.3	2.08	0.03	3.41
CCCc1cc(=O)[nH]c(=S)[nH]1	1.8	3.1	1.3	0.18	0.34
C[N+]1(C)CCC(OC(=O)C(O)(c2ccccc2)C2CCCC2)C1 (stereo not drawn)	0.37				
Nc1nc2c(ncn2COC(CO)CO)c(=O)[nH]1	3.7	4.6	3.7		1
O=C(Cc1cccs1)NC1C(=O)N2C(C(=O)[O-])=C(C[n+]3ccccc3)CS[C@H]12 (stereo partly drawn)	2.3	3.3	1.5	0.8	0.46
O=C1CCC(C(=O)N2CSCC2C(=O)O)N1 (stereo not drawn) ([pGlu]-[Thz]-OH; configuration not given here)	4.5	1.16	3.8	0.96	0.31
CC(C)(C)c1[nH]cnc1/C=c1\[nH]c(=O)/c(=C/c2ccccc2)[nH]c1=O	6.7	7.4	6.3		3
CCCCc1oc2ccc(NS(C)(=O)=O)cc2c1C(=O)c1ccc(OCCCN(CCCC)CCCC)cc1	10	33.3	16	0.02	20
Cc1cc(NC(=O)C2C(=O)c3ccccc3S(=O)(=O)N2C)no1 (stereo not drawn)	44	0.07	33		0.19
O=C(O)C(O)Cc1ccc(O)c(O)c1 (stereo not drawn)	0.53	17.8	0.37		0.38
NC[C@H]1OB(O)c2c(OCCCO)cccc21	9.6	4.1	11.6		2.37
CCNC(=O)OC1CCN(c2nncc3cc(OC)c(OC)cc23)CC1	0.25			0.08	0.67
CCCCCCC(C)(C)c1cc(O)c2c(c1)OC(C)(C)[C@H]1CC=C(CO)C[C@H]21	3.94	21.4	7.33		5.06
CON=C(C(=O)NC1C(=O)N2C(C(=O)O)=C(CN3C=CN4NC=CC=C34)CS[C@H]12)c1nsc(N)n1 (stereo partly drawn)	2	2.1	1.7	0.74	0.24
C[C@]12CCC(=O)C=C1CC[C@@H]1[C@@H]2[C@@H](O)C[C@@]2(C)[C@H]1CC[C@]2(O)C(=O)CO	1.9	5.7	1.6		0.38
C=CCOc1ccccc1OC[C@H](O)CNC(C)C	1.56	7.7	1.09	0.19	0.72

Structure (SMILES)	MRT [h]	clearance [mL/min/kg]	half-life [h]	fraction unbound	Vd [L/kg]
CC1(C)O[C@@H]2C[C@H]3[C@@H]4CC=C5CC(=O)C=C[C@]5(C)[C@@]4(F)[C@@H](O)C[C@]3(C)[C@]2(C(=O)CO)O1	2.5	9.4	2.4	0.2	1.4
CN(C)N=Nc1ccc(C(=O)O)cc1	3	1.3	2.5		0.25
O=P(NCCCl)(NCCCl)O[C@@H]1O[C@H](CO)[C@@H](O)[C@H](O)[C@H]1O	2.49	1.6	2.37	0.71	0.24
CN[C@@H]1[C@@H](O)[C@@H](O[C@@H]2[C@@H](O)[C@H](O[C@H]3O[C@H](CN)[C@@H](O)[C@H](O)[C@H]3O)[C@@H](N)C[C@H]2NC(=O)C(O)CN)OC[C@]1(C)O (stereo partly drawn)	4.1	1.3	24	0.95	
O=C(O)CCCSCCN1C(=O)CC[C@@H]1/C=C/[C@@H](O)Cc1ccc(F)cc1	0.51	15.8	0.38		0.48
CC(C(=O)O)c1ccc(N2Cc3ccccc3C2=O)cc1 (stereo not drawn)	2.7	0.65	2.11	0.01	0.12
NS(=O)(=O)OC[C@@H]1C[C@@H](n2ccc3c(N[C@H]4CCc5ccccc54)ncnc32)C[C@@H]1O	6.21	8.1	5.62		3.02
Cc1ccc(Sc2ccccc2N2CCNCC2)c(C)c1	101	5.8	72	0.02	35.3
CC(=O)NCCCS(=O)(=O)O	1.54	3.75	3.2	1	0.3
NS(=O)(=O)c1ccc(S(=O)(=O)Nc2cccc3c(Cl)c[nH]c23)cc1	16.9	0.72	20.3	0.001	0.68
COc1cccc2c1C(=O)c1c(O)c3c(c(O)c1C2=O)C[C@@](O)(C(=O)CO)C[C@@H]3O[C@H]1C[C@H](N)[C@H](OCc2ccccc2)[C@H](C)O1	43.2	18.5	34.6		48
CN(C)CCN1C(=O)c2cccc3cc([N+](=O)[O-])cc(c23)C1=O	5.6	34.6	28.7		11.3
CCc1nc(N)nc(N)c1-c1ccc(Cl)cc1	140	0.052	140	0.095	0.43
O=C(O)c1cc(N=Nc2ccc(O)c(C(=O)O)c2)ccc1O	0.97	1.2	0.9	0.01	0.07
O=C(O)C(CCc1ccccc1)NC1CCCN2CCCC(C(=O)O)N2C1=O (stereo not drawn)	29.5	2.1	50.6		3.7
CC(C=Cc1c(C)c(O)c2ccccc2c1O)=CCC[C@H](C)CCC[C@H](C)CCCC(C)C	3.3	1.6	7.3		0.32
CCNCC(O)c1cccc(O)c1 (stereo not drawn)	2.5	14	2.2		2.1
C=CCC1=CC(C)C[C@H](C)C[C@H](OC)[C@H]2O[C@@](O)(C(=O)C(=O)N3CCCCC3C(=O)O[C@H](/C(C)=C/[C@@H]3CC[C@@H](O)[C@H](OC)C3)[C@H](C)[C@@H](O)CC1=O)[C@H](C)C[C@@H]2OC (stereo partly drawn)	27	0.7	26		1.2
CC(=O)O[C@H]1C[C@@H]2CC[C@@H]3[C@H](CC[C@@]4(C)[C@H]3C[C@H](N3CC[N+](C)(C)CC3)[C@@H]4OC(C)=O)[C@@]2(C)C[C@@H]1N1CC[N+](C)(C)CC1	1.9	3	1.9	0.98	0.35
O=C1N=C(c2ccccc2Cl)c2cc(Cl)ccc2NC1O (stereo not drawn)	22	1	17		1.3
CCN[C@@H]1C[C@H](N)[C@@H](O[C@H]2OC(CN)=CC[C@H]2N)[C@H](O)[C@H]1O[C@H]1OC[C@](C)(O)[C@H](NC)[C@H]1O	2.2	0.55	3.2	1	0.073
Cn1c(COP(=O)(NCCBr)NCCBr)cnc1[N+](=O)[O-]	0.72	14.8	1		0.64
Cc1nc(=O)c(C#N)c(NCc2cccnc2)[nH]1	1.1	5.8	0.95	0.05	0.39
CN1C2CCC1CC(=C1c3ccccc3CSc3ccccc31)C2	39.5	4.98	29.8		11.8
O=C1c2ccc3ccccc3c2C(=O)N1CCNCCCNCCN1C(=O)c2ccc3ccccc3c2C1=O	35.2	5.7	52.6		12
